# Legend:
# γ-H2AX = test: IR-induced DNA double strand breaks, γ-H2AX immunohistochemistry in irradiated cells; type: cell-based; conditions: cells treated prior to irradiation of 0 Gy and 5 Gy, FIGS. 4A-4B
# Excerpt: In various embodiments JP4-039-MLVs have the ability to reduce IR-induced DNA double strand breaks (DSBs). IR induces DNA damage resulting in double strand breaks that can result in mitotic failure and cell death. Secondary oxidative stress induces further DNA damage. In response to double strand breaks, the histone H2AX is rapidly phosphorylated, producing γ-H2AX, a standard biomarker of DNA damage. […] FIGS. 4A-4B illustrate exemplary data from an embodiment showing the ability to reduce DNA DSBs. Specifically, FIG. 4A provides confocal images of cells treated with DMSO (control), JP4-039, and JP4-039-MLVs prior to irradiation of 0 Gy and 5 Gy. Cell nuclei are stained with DAPI (blue) and γ-H2AX is visualized by immunohistochemistry (green), while FIG. 4B illustrates relative frequency of γ-H2AX+ cells by counting blue puncta and green puncta.
# [1] = stated for comparison; cited from earlier work
# [2] = test system: mitochondrial membrane permeability; test: Mitochondrial membrane permeability in cells exposed to IR; type: cell-based; conditions: cells exposed to 10 Gy IR, FIG. 5B
# Excerpt: (§1) In various embodiments JP4-039-MLV nanoparticles protect cells from IR-induced oxidative stress. In addition to DNA damage, IR-induced oxidative stress can result in lipid peroxidation, mitochondrial membrane permeability, and an increase in ROS concentration. FIGS. 5A-5C provide exemplary data of an embodiment showing reduction of IR-induced cellular dysregulation.
# [3] = test system: γ-H2AX+ intestinal crypt cells; conditions: mice, 9.25 Gy TBI; cited from earlier work
# [4] = cited from earlier work
# [5] = cited from earlier work; remark: listed apart in the source
# ROS = ROS levels in cells exposed to IR; type: cell-based; conditions: cells exposed to 5 Gy IR, FIG. 5C
# Excerpt: as §1
# lipid peroxidation = test: Lipid peroxidation in cells exposed to IR; type: cell-based; conditions: cells exposed to 5 Gy IR, FIG. 5A
# Excerpt: as §1
substance,measurement,setting,value
JP4-039,protection from IR-induced DNA damage (relative frequency of γ-H2AX+ cells),γ-H2AX,protected cells from IR-induced DNA damage
same,in vivo half-life,[1],approximately 6 hours
same,levels of mitochondrial membrane permeability,[2],reduced levels of mitochondrial membrane permeability
same,number of γ-H2AX+ intestinal crypt cells,[3],reduce the number of γ-H2AX+ intestinal crypt cells
same,survival following TBI,[4]; hematopoietic- or gastrointestinal-ARS-inducing doses of TBI,increasing survival
same,time window of effectiveness relative to irradiation,[4]; in vivo radiation survival studies,effective 24 h prior to 72 h after irradiation
same,solubility in an aqueous environment,[5],very low solubility
same,ROS levels,ROS,reduced ROS levels
same,levels of lipid peroxidation,lipid peroxidation,reduce levels of lipid peroxidation

# Source: US20260144752A1, “Multilamellar Vesicles and Methods and Uses Thereof” (ChromoLogic LLC, priority 2022, published 2026)
